A short description of series [1]: Antiproliferative activity against human KARPAS299 cells incubated for 72 hrs by cell titer-glo assay. To be noted: KARPAS-299, 72 h.
Series [2] can be described thus: Solubility of compound at pH 7 buffer. The class given is physicochemical.
Series [3] is described as follows: Apparent permeability from apical to basolateral side in human Caco2 cells at 2.5 mg/ml after 2 hrs by reversed-phase HPLC method. The class given is ADME, cell-based. To be noted: Caco-2.
Series [4] in a line: Apparent permeability from basolateral to apical side in human Caco2 cells at 2.5 mg/ml after 2 hrs by reversed-phase HPLC method. The note with it: Caco-2. The class given is ADME, cell-based.
The nature of series [5]: Intrinsic clearance in human liver microsomes at […] preincubated for 5 mins followed by NADPH addition measured after 5 to 30 mins by LC-MS/MS analysis. To be noted: read-out: CLH. The class given is ADME.
The nature of series [6]: Intrinsic clearance in rat hepatocytes at […] after 10 to 90 mins by LC-MS/MS analysis. The class given is ADME, cell-based, Hepatocyte. The note with it: read-out: CLH.
A short description of series [7]: Cmax in Harlan nu/nu mouse at 10 mg/kg, iv administered as single dose by LC-MS/MS analysis. The class given is ADME, organism-based. Set-up: dose 10 mg/kg, route intravenous. To be noted: in vivo.
Series [8] can be described thus: AUC (infinity) in Harlan nu/nu mouse at 10 mg/kg, iv administered as single dose by LC-MS/MS analysis. The class given is ADME, organism-based. The note with it: in vivo. Set-up: dose 10 mg/kg, time infinity, route intravenous.
The nature of series [9]: Clearance in Harlan nu/nu mouse at 10 mg/kg, iv administered as single dose by LC-MS/MS analysis. The note with it: in vivo. The class given is ADME, organism-based.
The nature of series [10]: Volume of distribution at steady state in Harlan nu/nu mouse at 10 mg/kg, iv administered as single dose by LC-MS/MS analysis. To be noted: in vivo.
Series [11] can be described thus: Half life in Harlan nu/nu mouse at 10 mg/kg, iv administered as single dose by LC-MS/MS analysis. The class given is ADME, organism-based. The note with it: in vivo.
A short description of series [12]: Cmax in Harlan nu/nu mouse at 10 mg/kg, po administered as single dose by LC-MS/MS analysis. The class given is ADME, organism-based. More on the design: dose 10 mg/kg, route oral. The note with it: in vivo.
The nature of series [13]: Tmax in Harlan nu/nu mouse at 10 mg/kg, po administered as single dose by LC-MS/MS analysis. The note with it: in vivo. The class given is ADME, organism-based.
A short description of series [14]: AUC (infinity) in Harlan nu/nu mouse at 10 mg/kg, po administered as single dose by LC-MS/MS analysis. The class given is ADME, organism-based. More on the design: dose 10 mg/kg, route oral, time infinity. To be noted: in vivo.
The nature of series [15]: Half life in Harlan nu/nu mouse at 10 mg/kg, po administered as single dose by LC-MS/MS analysis. The class given is ADME, organism-based. To be noted: in vivo.
A short description of series [16]: Oral bioavailability in Harlan nu/nu mouse at 10 mg/kg administered as single dose by LC-MS/MS analysis. The note with it: in vivo. The class given is ADME, organism-based.
Series [17] addresses Insulin receptor (Homo sapiens, UniProt P06213). The series is described as follows: Inhibition of IR (unknown origin) in presence of gamma33-ATP.
Series [18] addresses ALK tyrosine kinase receptor (Homo sapiens, UniProt Q9UM73).
Description: Inhibition of recombinant ALK (unknown origin) in presence of gamma33-ATP

Molecules are shown by their SMILES. ≈ marks a conversion by molar mass, not a printed value.

Sequence of Insulin receptor (P06213 28-758 limits assumed): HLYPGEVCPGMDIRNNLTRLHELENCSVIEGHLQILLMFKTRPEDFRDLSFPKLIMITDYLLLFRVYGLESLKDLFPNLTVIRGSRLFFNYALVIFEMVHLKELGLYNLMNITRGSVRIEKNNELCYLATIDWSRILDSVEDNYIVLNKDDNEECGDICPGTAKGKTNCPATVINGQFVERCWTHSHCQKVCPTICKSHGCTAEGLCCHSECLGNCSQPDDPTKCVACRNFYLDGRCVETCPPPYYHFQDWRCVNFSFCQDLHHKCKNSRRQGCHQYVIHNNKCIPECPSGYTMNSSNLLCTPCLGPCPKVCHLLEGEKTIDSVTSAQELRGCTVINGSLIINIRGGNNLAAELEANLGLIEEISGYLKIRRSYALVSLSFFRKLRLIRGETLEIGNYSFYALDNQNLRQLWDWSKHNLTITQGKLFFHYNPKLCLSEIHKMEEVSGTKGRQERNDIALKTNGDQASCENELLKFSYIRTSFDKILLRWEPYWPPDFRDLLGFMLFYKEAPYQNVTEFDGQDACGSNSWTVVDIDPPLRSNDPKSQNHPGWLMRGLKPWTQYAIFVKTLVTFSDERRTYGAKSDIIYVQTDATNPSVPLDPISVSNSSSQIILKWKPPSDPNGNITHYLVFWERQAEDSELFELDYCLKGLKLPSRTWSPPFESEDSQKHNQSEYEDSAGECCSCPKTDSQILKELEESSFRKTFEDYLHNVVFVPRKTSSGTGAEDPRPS
Sequence of Insulin receptor (P06213 763-1382 limits assumed): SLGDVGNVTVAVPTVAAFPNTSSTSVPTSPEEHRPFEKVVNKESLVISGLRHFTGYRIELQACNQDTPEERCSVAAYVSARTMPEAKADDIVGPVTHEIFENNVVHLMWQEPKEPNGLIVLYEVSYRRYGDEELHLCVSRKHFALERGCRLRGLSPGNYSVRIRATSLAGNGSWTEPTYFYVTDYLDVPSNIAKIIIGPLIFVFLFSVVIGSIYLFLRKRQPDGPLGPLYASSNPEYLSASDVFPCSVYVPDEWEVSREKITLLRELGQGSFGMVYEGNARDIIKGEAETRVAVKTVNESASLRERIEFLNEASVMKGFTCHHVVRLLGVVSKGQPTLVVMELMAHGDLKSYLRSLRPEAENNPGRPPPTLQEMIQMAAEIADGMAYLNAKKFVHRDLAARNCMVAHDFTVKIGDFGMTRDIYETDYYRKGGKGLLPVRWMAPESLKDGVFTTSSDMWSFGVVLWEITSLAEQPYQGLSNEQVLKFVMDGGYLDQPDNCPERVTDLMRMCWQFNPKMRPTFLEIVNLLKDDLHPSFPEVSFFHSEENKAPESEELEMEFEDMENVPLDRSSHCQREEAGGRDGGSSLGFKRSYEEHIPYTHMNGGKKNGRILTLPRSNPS
Sequence of ALK tyrosine kinase receptor (Q9UM73 whole entry): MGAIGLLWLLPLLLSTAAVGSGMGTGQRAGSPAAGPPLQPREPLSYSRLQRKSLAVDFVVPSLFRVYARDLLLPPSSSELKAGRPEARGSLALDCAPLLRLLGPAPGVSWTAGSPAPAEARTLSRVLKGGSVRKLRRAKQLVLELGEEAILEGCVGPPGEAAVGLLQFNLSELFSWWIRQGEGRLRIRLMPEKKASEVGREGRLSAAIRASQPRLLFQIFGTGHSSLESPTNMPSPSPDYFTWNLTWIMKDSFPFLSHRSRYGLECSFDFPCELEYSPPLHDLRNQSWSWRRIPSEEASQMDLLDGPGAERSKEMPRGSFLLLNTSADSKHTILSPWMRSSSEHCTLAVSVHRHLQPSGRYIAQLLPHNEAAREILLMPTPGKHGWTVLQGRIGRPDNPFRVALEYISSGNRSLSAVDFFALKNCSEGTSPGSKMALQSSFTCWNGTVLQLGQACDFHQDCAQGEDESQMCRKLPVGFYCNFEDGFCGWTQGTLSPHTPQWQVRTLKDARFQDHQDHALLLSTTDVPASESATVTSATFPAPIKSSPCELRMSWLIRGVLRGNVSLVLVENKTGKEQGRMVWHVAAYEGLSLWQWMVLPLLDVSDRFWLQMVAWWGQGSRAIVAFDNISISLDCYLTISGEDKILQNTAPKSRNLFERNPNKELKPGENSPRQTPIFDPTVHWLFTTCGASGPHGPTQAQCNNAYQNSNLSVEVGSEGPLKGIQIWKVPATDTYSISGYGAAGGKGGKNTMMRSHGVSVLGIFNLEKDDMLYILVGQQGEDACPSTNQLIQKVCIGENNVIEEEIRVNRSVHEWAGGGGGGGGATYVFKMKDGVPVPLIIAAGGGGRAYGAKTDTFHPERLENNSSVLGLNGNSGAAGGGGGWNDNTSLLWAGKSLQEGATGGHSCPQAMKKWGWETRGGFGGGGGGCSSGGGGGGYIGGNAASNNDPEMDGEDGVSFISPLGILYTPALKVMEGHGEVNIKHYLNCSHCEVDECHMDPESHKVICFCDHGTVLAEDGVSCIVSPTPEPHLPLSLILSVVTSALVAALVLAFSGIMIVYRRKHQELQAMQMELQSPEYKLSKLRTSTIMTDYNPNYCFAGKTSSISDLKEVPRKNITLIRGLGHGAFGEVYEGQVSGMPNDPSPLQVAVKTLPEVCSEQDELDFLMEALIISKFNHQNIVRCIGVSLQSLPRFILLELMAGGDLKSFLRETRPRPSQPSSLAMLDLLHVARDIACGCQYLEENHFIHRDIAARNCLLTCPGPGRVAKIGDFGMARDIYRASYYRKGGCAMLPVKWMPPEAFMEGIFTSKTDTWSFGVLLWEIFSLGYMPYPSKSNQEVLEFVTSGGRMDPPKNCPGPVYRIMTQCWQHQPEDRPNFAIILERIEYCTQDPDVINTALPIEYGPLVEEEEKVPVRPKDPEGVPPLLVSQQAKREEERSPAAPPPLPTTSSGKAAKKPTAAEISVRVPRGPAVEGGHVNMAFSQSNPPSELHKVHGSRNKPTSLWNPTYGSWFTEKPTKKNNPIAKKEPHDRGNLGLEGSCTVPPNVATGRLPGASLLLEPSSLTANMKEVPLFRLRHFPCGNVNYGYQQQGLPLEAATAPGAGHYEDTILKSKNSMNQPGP

With `O=C(Nc1n[nH]c2ccc(Cc3cc(F)cc(F)c3)cc12)c1ccc(N2CCNCC2)cc1NC1CCOCC1`, the IC50 was 13 nM in [1], 41 nM in series [17] and 3 nM in series [18]. The amount in solution in series [2] (solubility) came to 103 µM (≈ 56.3 µg/mL). Moreover, the Papp A→B at 2 h, 2.5 mg/ml in series [3] came out at 0.6 ×10⁻⁶ cm/s. In addition, in series [4], the Papp B→A at 2 h, 2.5 mg/ml worked out at 4.5 ×10⁻⁶ cm/s. The figures for the CLint scaled in series [5] and in series [6] were 7.5 mL/min/kg and 52 mL/min/kg, respectively. For the same compound, the Cmax in series [7] is 40.5 µM; in series [12], 0.081 µM. The figures for the AUC(0-inf) in series [8] and in [14] were 42.2 µM·h and 1.33 µM·h, respectively. In series [9], this compound registered a clearance of 7.01 mL/min/kg. Moreover, in series [10], the Vd came to 1.4 L/kg. Also, the half-life was 4.76 h in [11] and 9.63 h in series [15]. In addition, the Tmax in series [13] is 6 h. For the same compound, the bioavailability in [16] turned out to be 2.9%.

(Values after ChEMBL document CHEMBL3804811 (J Med Chem, 2016).)
